Laboratory results taken from the METLIN SMRT retention time set (Domingo-Almenara et al. 2019).

Experiment: gradient 5% acetonitrile 3 min, to 50% in 2 min, to 85% in 15 min, held 3 min, 100 µL/min
Details: column: Zorbax Extend-C18 2.1 x 50 mm; eluents: water / acetonitrile, 0.1% formic acid
Procedure, shortened: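 Data were gathered over 3 months by HPLC coupled to a quadrupole time-of-flight mass spectrometer, operated in positive and negative ionization mode. Mixtures of ~100 pure standards ran on a Zorbax Extend-C18 column (2.1 × 50 mm, 1.8 μm) at 100 μL/min, with water and acetonitrile each containing 0.1% formic acid and dead and dwell volumes of 40 μL and 900 μL. Retention time was read from adduct peaks picked by computer and checked manually.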

Row | SMILES | RP-LC retention time
1 | Cc1ccc(C(=O)N2CCC(c3nc4ccncc4n3CC(C)C)C2)s1 (centres undefined) | 569 s
2 | CC(C)(C)c1ccc(NC(=O)NCCN2CCN(S(C)(=O)=O)CC2)cc1 | 606 s
3 | Cc1cc(Cl)ccc1NS(=O)(=O)c1cc2c(s1)CCN(C(=O)C1CC1)C2 | 923 s
4 | COc1ccccc1/C=C/c1nc(-c2cccc(-c3ccnn3C)c2)no1 | 1200 s
5 | COCCC(=O)NCCC1CCN(C(=O)Nc2ccc(F)cc2F)CC1 | 643 s
6 | Cc1cc(C(=O)Nc2nc(-c3ccc(Cl)cc3)c(C)s2)no1 | 1110 s
7 | CCC1(O)CCC12CCN(C(=O)CC1CCN(C(C)=O)CC1)CC2 (centres undefined) | 629 s
8 | C=CCn1c(C)c(CC(=O)Nc2ccc(F)cc2)c(=O)n2nc(-c3ccc(C)cc3)nc12 | 945 s
9 | Cc1ccccc1CN1CCN(CC(=O)N2CCN(Cc3ccccc3)CC2)C(=O)C1=O | 609 s
10 | CC(C)c1cc(C(F)(F)F)nc(NNc2nc(C(C)C)cc(C(F)(F)F)n2)n1 | 924 s
11 | O=C(Nc1c(-c2ccccc2)nc2ccc(Cl)cn12)c1cccs1 | 735 s
12 | CCCNC(=O)C1CCN(c2ccc(SCC(=O)Nc3ccc(S(C)(=O)=O)cc3)nn2)CC1 | 593 s
13 | COc1ccc(C(=O)N2CCc3cn(C)c4cccc(c34)C2)c(OC)c1 | 875 s
14 | CCCC(=O)N1CCC2(CC1)NC(=O)c1ccccc1O2 | 688 s
15 | CCc1ccc(N2CC(c3noc(-c4cnccn4)n3)CC2=O)cc1 (centres undefined) | 760 s
16 | O=C(CN1CCN(Cc2ccccc2F)C1=O)NCc1ccccc1Br | 853 s
17 | COc1cccc(CNC(=O)C2CCN(Cc3cn(C)c4ccc(Cl)cc34)CC2)c1 | 700 s
18 | Cc1cc(C)nc(N2CCN(c3cccc(Cl)c3)CC2)n1 | 1060 s
19 | CC(=O)Nc1nc(-c2ccc3c(c2)N(C)C(=O)CO3)c(C)s1 | 726 s
20 | COc1ccc(NC(=O)C2CCN(c3cnc4nc(C)c(C)nc4c3)CC2)c(C)c1 | 683 s
21 | CN(C)c1cccc(C(=O)N2CCC3(CC2)N=C(c2ccc(Br)cc2)NO3)c1 | 867 s
22 | CNC(=O)[C@H]1O[C@@H](n2cnc3c(NCc4cccc(I)c4)ncnc32)C(O)[C@H]1O (some centres undefined) | 730 s
23 | Cc1cccc2nnc(N3CCCC(C(=O)NCc4cccs4)C3)n12 (centres undefined) | 659 s

Row | SMILES | RP-LC retention time
24 | Cc1cccc(C)c1OCC(O)Cn1c(C2CC(=O)N(Cc3ccccc3)C2)nc2ccccc21 (centres undefined) | 834 s
25 | CCCn1nnc2cc(-c3noc(CNC(=O)c4ccccc4)n3)ccc21 | 624 s
26 | COc1ccc(OC)c(S(=O)(=O)NC2CCCN(c3ccc(=O)n(C)n3)C2)c1 (centres undefined) | 702 s
27 | O=c1ccc(-n2cccn2)nn1CCNS(=O)(=O)c1ccc(F)c(Cl)c1 | 722 s
28 | Cc1nc2nc(-c3ccc(C(C)(C)C)cc3)nn2c(C)c1CC(=O)N1CCN(CCO)CC1 | 657 s
29 | CCCNC(=O)C1CCN(c2ccc(SCC(=O)N(C)c3ccccc3)nn2)CC1 | 627 s
30 | COC(=O)c1ccc(Cl)cc1NC(=O)N1CCc2nc[nH]c2C1 | 644 s
31 | Cc1nc(N2CCOCC2)cc(N2CCN(C(=O)c3ccc(Br)o3)CC2)n1 | 619 s
32 | O=C(NC1CCCC1)c1cc(C2CC2)[nH]n1 | 692 s
33 | COc1cccc(CC(=O)N2CCC3(CC2)NCc2ccccc2-n2ccnc23)c1 | 572 s
34 | CN(C(=O)c1ccncc1)c1ccccc1 | 667 s
35 | COc1ccc(-c2nc(-c3ccc4ncn(C(C)C)c4c3)no2)c(OC)c1 | 729 s
36 | Cc1cccc(CNC(=O)C2CCN(S(=O)(=O)c3cn(C(C)C)cn3)CC2)c1 | 773 s
37 | Cc1cnc(C(=O)N[C@@H]2CCC[C@@H]2C(=O)NCC2CCCCC2)cn1 | 742 s
38 | O=C(c1cc2ccccc2[nH]1)N1CCC(c2noc(C3CC3)n2)C1 (centres undefined) | 1440 s
39 | Cc1ccc(-c2cc3n(n2)CCCN(C(=O)c2ccoc2)C3)cc1 | 810 s
40 | CCOc1ccc2ccccc2c1C(=O)NCCc1ccsc1 | 872 s
41 | CCn1nccc1C(=O)N1CCC(Nc2ncnc3c2CCC3)CC1 | 557 s
42 | Cc1ccc(Sc2nccnc2N2CCCC(C(=O)N3CCN(c4ccccc4)CC3)C2)cc1 (centres undefined) | 1220 s
43 | CC(C)C(=O)N1CCc2ccccc2C1C(=O)N1CCN(c2ccc(F)cc2)CC1 (centres undefined) | 930 s
44 | COc1ccc(N2CCN(C(=O)C3CC(=O)N(CCc4ccccc4)C3)CC2)cc1 (centres undefined) | 729 s
45 | CC(C)N1CCN(C(=O)C2CCc3sc(C(=O)N4CCCCCC4)cc3C2)CC1 (centres undefined) | 619 s
46 | COc1ccc(-c2nc3ncccn3c2NCc2ccc(C)cc2)cc1 | 756 s

Row | SMILES | RP-LC retention time
47 | O=S(=O)(c1ccc(-c2cnc(C3CCC3)o2)s1)N1CCN(c2ccccn2)CC1 | 767 s
48 | O=C(c1cc(-c2cccnc2)n[nH]1)N1CCCC(C(=O)N2CCN(c3ccc(Cl)cc3)CC2)C1 (centres undefined) | 685 s
49 | CN(C)c1ccc(CNC(=O)CCCn2c(=O)c3cccn3c3ccc(F)cc32)cc1 | 658 s
50 | Cc1nc(-c2ccc3c(c2)CCN3C(=O)Cc2ccsc2)cs1 | 980 s
51 | Cc1nc2n(c(=O)c1C)CCN2CC(=O)NCc1ccccc1Cl | 652 s
52 | CSc1ccc(CNC(=O)C2CCCN(C(=O)c3[nH]c(C)c(C(=O)OC(C)C)c3C)C2)cc1 (centres undefined) | 929 s
53 | Cc1ccc(Cn2cc(-c3ccncc3)cc2C(=O)NCC(C)C)cc1 | 720 s
54 | Cn1cc(-c2cc3n(n2)CCC(=O)N3CC(=O)NCc2ccccc2)c2ccccc21 | 798 s
55 | CCc1nnc2nc(N3CCN(C(=O)COc4ccc(F)cc4)CC3)cc(C)n12 | 621 s
56 | COc1ccc2c(c1)c(CN1CCC(C(=O)NCc3ccccc3C)CC1)cn2C | 697 s
57 | CC1Cc2ccccc2N1C(=O)c1ccc(=O)n(CCC(=O)NC2CCCCCCC2)n1 (centres undefined) | 895 s
58 | CCOC(=O)c1cnc2c(cnn2CC)c1NN=C(C)C | 1010 s
59 | COCCN(Cc1ccncc1)C(=O)c1ccccc1SC | 557 s
60 | Cc1ccc(-c2nnc(Cc3nc(C(C)C)no3)o2)cc1C | 967 s
61 | CC1(C)C(=O)NCCN1C(=O)C1COc2ccccc2O1 (centres undefined) | 628 s
62 | COc1ccc(-c2noc(Cc3nnc(-c4ccc(F)cc4)o3)n2)cc1 | 972 s
63 | COc1ccc(Cl)cc1NC(=O)NC(C)C(=O)N1CCc2ccccc21 (centres undefined) | 1000 s
64 | COc1cccc(CN2C[C@@H]3C(=O)N(CCCN4CCCC4=O)C(=O)[C@@H]3C2)c1 | 598 s
65 | Cc1nc2cc(-c3noc(-c4ccccc4C(F)(F)F)n3)ccc2o1 | 1080 s
66 | CC1CCCCN1CCCNC(=O)CCCn1c(=O)c2cccn2c2ccc(Br)cc21 (centres undefined) | 674 s
67 | CC1Oc2ccc(S(=O)(=O)N3CCC(C(=O)N4CCCc5ccccc54)CC3)cc2NC1=O (centres undefined) | 891 s
68 | Cn1cc(-c2ccccc2)cc1C(=O)N1CCOCC1 | 804 s
69 | O=C1C2N=NN(Cc3nc(-c4ccc(Cl)cc4)no3)C2C(=O)N1c1ccc(F)cc1 (centres undefined) | 1030 s

Row | SMILES | RP-LC retention time
70 | CCn1cc2c3c(cccc31)CN(C(=O)CCc1ccccc1)CC2 | 1050 s
71 | COc1ccc(-c2ncccc2CNS(=O)(=O)c2cccc(C#N)c2)cc1 | 660 s
72 | Cn1nc(C(=O)N2CCCCC2)c2c1CCN(C(=O)CCC(=O)NCCC1=CCCCC1)C2 | 744 s
73 | Cn1nc(C(=O)N2CCCCC2)c2c1CCN(C(=O)CCC(=O)N1CCCCCC1)C2 | 668 s
74 | CCOc1ccccc1NS(=O)(=O)c1ccccc1-c1nc(-c2cccc(F)c2)no1 | 1280 s
75 | Cc1ccccc1-n1c(=O)c2sccc2n(Cc2nc(-c3ccc(C(F)(F)F)cc3)no2)c1=O | 1120 s
76 | CCN1CCCC1CN(CC(=O)N1CCNCC1)S(=O)(=O)c1cc(C)c(C)cc1C (centres undefined) | 588 s
77 | Cc1cccc(-c2nc(Cn3nnc(-c4nc(-c5ccccc5Cl)no4)c3C)c(C)o2)c1 | 908 s
78 | Cc1nn(C)c(=O)c2cc(S(=O)(=O)NCc3ccc(F)cc3)cn12 | 766 s
79 | C=CCN1CCN(c2nc3cc(C(=O)OC)ccc3c(=O)n2-c2ccc(OC)c(OC)c2)CC1 | 631 s
80 | O=C(NCCn1c(=O)n(Cc2ccc(F)cc2)c2cccnc21)c1ccoc1 | 745 s
81 | COCc1ncc(C)n1CCNC(=O)Nc1ccsc1C(=O)OC | 615 s
82 | CCOc1ccccc1-c1noc(Cn2cnc3c(cnn3-c3ccccc3)c2=O)n1 | 990 s
83 | CC1=C(C#N)C(C)(C)C(C#N)=C(C)N1 | 804 s
84 | CCOC(=O)c1ccc(NC(=O)Cn2c(=O)nc(N3CCC(C)CC3)c3ccccc32)cc1 | 872 s
85 | CC(=O)Nc1ccc(C(=O)NC2CCN(c3cc(-c4ccc(F)cc4)[nH]n3)C2)cc1 (centres undefined) | 641 s
86 | c1cc2c3c(cccc3c1)NC1(CCC3(CC1)Nc1cccc4cccc(c14)N3)N2 | 1200 s
87 | Cc1ccc2[nH]cc(CCNC(=O)CCc3nnc(C(=O)Nc4ccccc4)s3)c2c1 | 875 s
88 | Cc1ccc(-n2c(N3CCCC(C(=O)NCc4cccs4)C3)nc3ccsc3c2=O)cc1 (centres undefined) | 880 s
89 | CCc1nc2cc(-c3noc(/C=C/c4ccc(C)o4)n3)ccc2o1 | 1180 s
